In US20120214822A1 (ASTRAZENECA AB, priority 2007, published 2012):

Target: human active recombinant p38α-6His tagged (Homo sapiens, UniProt Q16539)
Assay: P38 Alpha Enzyme Assay (AlphaScreen, biotinylated-ATF2 substrate);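 further: 0.5 nM final p38α, reaction started with ATP and run 45 min at 37 °C, phospho-ATF2 read by antibody-based AlphaScreen, background wells quenched with EDTA before ATP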
Assay type: biochemical
Details: p38 alpha enzyme inhibition; means of replicate determinations; 4 h pre-incubation at 37° C.; SD of assay 0.2-0.3 log units

Chain of human active recombinant p38α-6His tagged (Q16539 whole entry): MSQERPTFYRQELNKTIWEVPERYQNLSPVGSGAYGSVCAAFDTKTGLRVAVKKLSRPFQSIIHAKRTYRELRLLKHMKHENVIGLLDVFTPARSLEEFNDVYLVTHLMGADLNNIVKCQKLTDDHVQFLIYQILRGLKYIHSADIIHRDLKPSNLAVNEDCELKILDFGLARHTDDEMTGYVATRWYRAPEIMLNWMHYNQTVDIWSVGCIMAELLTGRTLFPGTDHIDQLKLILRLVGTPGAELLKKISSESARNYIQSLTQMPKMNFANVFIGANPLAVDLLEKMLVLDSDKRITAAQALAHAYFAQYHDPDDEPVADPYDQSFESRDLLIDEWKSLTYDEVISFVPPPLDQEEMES

| pIC50 | SMILES |
| --- | --- |
| 7 | Cc1ccc(C(=O)NC2CC2)cc1-n1ccnc(NC(C)(C)Cc2ccccc2)c1=O [Example 65, N-Cyclopropyl-3-[3-[(1,1-dimethyl-2-phenylethyl)amino]-2-oxo-1(2H)-pyrazinyl]-4-methyl-benzamide] |
| 9 | Cc1ccc(C(=O)NC2CC2)cc1-n1ccnc(N[C@@H](c2ccccc2)[C@@H](C)CNC2CC2)c1=O [Example 183, N-Cyclopropyl-3-[3-[[(1R,2S)-3-(cyclopropylamino)-2-methyl-1-phenylpropyl]amino]-2-oxo-1(2H)-pyrazinyl]-4-methyl-benzamide] |
| 6.8 | Cc1ccc(C(=O)NC2CC2)cc1-n1ccnc(NCCc2ccc(O)cc2)c1=O [Example 70, N-Cyclopropyl-3-[3-[[2-(4-hydroxyphenyl)ethyl]amino]-2-oxo-1(2H)-pyrazinyl]-4-methyl-benzamide] |
| 6.3 | Cc1ccc(C(=O)NC2CC2)cc1-n1ccnc(NCc2cccnc2)c1=O [Example 24, N-Cyclopropyl-4-methyl-3-[2-oxo-3-[(3-pyridinylmethyl)amino]-1(2H)-pyrazinyl]-benzamide] |
| 8.2 | Cc1ccc(C(=O)NC2CC2)cc1-n1ccnc(NCc2cccc(Cl)c2)c1=O [Example 130, 3-[3-[[(3-Chlorophenyl)methyl]amino]-2-oxo-1(2H)-pyrazinyl]-N-cyclopropyl-4-methyl-benzamide] |
| 7.2 | Cc1ccc(C(=O)NC2CC2)cc1-n1ccnc(N[C@H]2C[C@@H]2c2ccccc2)c1=O [Example 47, N-Cyclopropyl-4-methyl-3-[2-oxo-3-[[(1S,2R)-2-phenylcyclopropyl]amino]-1(2H)-pyrazinyl]-benzamide] |
| 9.9 | Cc1ccc(C(=O)NC2CC2)cc1-n1ccnc(NC2(c3ccccc3OCCN(C)C)CC2)c1=O [Example 237, N-Cyclopropyl-3-[3-[[1-[2-[2-(dimethylamino)ethoxy]phenyl]cyclopropyl]amino]-2-oxo-1(2H)-pyrazinyl]-4-methyl-benzamide] |
| 6.6 | Cc1ccc(C(=O)NC2CC2)cc1-n1ccnc(N2CCN(C)CC2c2ccccc2)c1=O (centres unmarked) [Example 119, N-Cyclopropyl-4-methyl-3-[3-(4-methyl-2-phenyl-1-piperazinyl)-2-oxo-1(2H)-pyrazinyl]-benzamide] |
| 9.1 | Cc1ccc(C(=O)NC2CC2)cc1-n1ccnc(N[C@@H](c2ccccc2)[C@@H](C)CN2C[C@@H](C)N[C@@H](C)C2)c1=O [Example 194, N-Cyclopropyl-3-[3-[[(1R,2S)-3-[(3R,5S)-3,5-dimethyl-1-piperazinyl]-2-methyl-1-phenylpropyl]amino]-2-oxo-1(2H)-pyrazinyl]-4-methyl-benzamide] |
| 9.8 | CONC(=O)c1ccc(C)c(-n2ccnc(N[C@@H](c3ccccc3)[C@@H](C)CN3CCOCC3)c2=O)c1 [Example 160, N-Methoxy-4-methyl-3-[3-[[(1R,2S)-2-methyl-3-(4-morpholinyl)-1-phenylpropyl]amino]-2-oxo-1(2H)-pyrazinyl]-benzamide] |
| 9.4 | CNCCOc1ccccc1C(C)(C)Nc1nccn(-c2cc(C(=O)NC3CC3)ccc2Cl)c1=O [Example 330, 4-Chloro-N-cyclopropyl-3-[3-[(1-methyl-1-{2-[2-(methylamino)ethoxy]phenyl}ethyl)amino]-2-oxopyrazin-1(2H)-yl]benzamide] |
| 9.5 | Cc1ccc(C(=O)NC2CC2)cc1-n1ccnc(NC2(c3ccccc3OCCNC3CCS(=O)(=O)C3)CC2)c1=O (centres unmarked) [Example 295, N-Cyclopropyl-3-[3-{[1-(2-{2-[(1,1-dioxidotetrahydrothiophen-3-yl)amino]ethoxy}phenyl)cyclopropyl]amino}-2-oxopyrazin-1(2H)-yl]-4-methylbenzamide] |
| 7.2 | Cc1ccc(C(=O)NC2CC2)cc1-n1cc(Cl)nc(NCc2ccccc2)c1=O [Example 109, 3-[5-Chloro-2-oxo-3-[(phenylmethyl)amino]-1(2H)-pyrazinyl]-N-cyclopropyl-4-methyl-benzamide] |
| 9.9 | CCNCCOc1ccccc1C1(Nc2nccn(-c3cc(C(=O)NC4CC4)ccc3C)c2=O)CCC1 [Example 269, N-Cyclopropyl-3-[3-[[1-[2-[2-(ethylamino)ethoxy]phenyl]cyclobutyl]amino]-2-oxo-1(2H)-pyrazinyl]-4-methyl-benzamide] |
| 6.7 | CNCCOc1ccccc1C(C)(C)Nc1nccn(-c2cc(C(=O)N3CCC3)ccc2C)c1=O [Example 221, 1-[4-Methyl-3-[3-[[1-methyl-1-[2-[2-(methylamino)ethoxy]phenyl]ethyl]amino]-2-oxo-1(2H)-pyrazinyl]benzoyl]-azetidine] |
| 8.4 | CCc1ccc(C(=O)NC2CC2)cc1-n1ccnc(NC(C)(C)c2ccccc2OCCN)c1=O [Example 292, 3-[3-({1-[2-(2-Aminoethoxy)phenyl]-1-methylethyl}amino)-2-oxopyrazin-1(2H)-yl]-N-cyclopropyl-4-ethylbenzamide] |

| pIC50 | SMILES |
| --- | --- |
| 8.5 | COc1ccccc1[C@H](Nc1nccn(-c2cc(C(=O)NC3CC3)ccc2C)c1=O)[C@@H](C)CN1CCCC1 [Example 277, N-Cyclopropyl-3-[3-[[(1R,2S)-1-(2-methoxyphenyl)-2-methyl-3-(1-pyrrolidinyl)propyl]amino]-2-oxo-1(2H)-pyrazinyl]-4-methyl-benzamide] |
| 9 | Cc1c(F)cc(C(=O)NC2CC2)cc1-n1ccnc(N[C@@H](c2ccccc2)[C@@H](C)CN2CCCC2)c1=O [Example 328, N-Cyclopropyl-3-fluoro-4-methyl-5-[3-{[(1R,2S)-2-methyl-1-phenyl-3-pyrrolidin-1-ylpropyl]amino}-2-oxopyrazin-1(2H)-yl]benzamide] |
| 6.8 | Cc1ccc(C(=O)NC2CC2)cc1-n1ccnc(NC2Cc3ccccc3C2)c1=O [Example 64, N-Cyclopropyl-3-[3-[(2,3-dihydro-1H-inden-2-yl)amino]-2-oxo-1(2H)-pyrazinyl]-4-methyl-benzamide] |
| 6.4 | Cc1ccc(C(=O)NC2CC2)cc1-n1ccnc(NC[C@@H](O)c2ccccc2)c1=O [Example 56, N-Cyclopropyl-3-[3-[[(2S)-2-hydroxy-2-phenylethyl]amino]-2-oxo-1(2H)-pyrazinyl]-4-methyl-benzamide] |
| 7.7 | Cc1ccc(C(=O)NC2CC2)cc1-n1ccnc(NCc2ccccc2C(F)(F)F)c1=O [Example 79, N-Cyclopropyl-4-methyl-3-[2-oxo-3-[[[2-(trifluoromethyl)phenyl]methyl]amino]-1(2H)-pyrazinyl]-benzamide] |
| 10.4 | CCNC[C@@H](O)COc1ccccc1C(C)(C)Nc1nccn(-c2cc(C(=O)NC3CC3)cc(F)c2C)c1=O [Example 308, N-Cyclopropyl-3-[3-{[1-(2-{[(2R)-3-(ethylamino)-2-hydroxypropyl]oxy}phenyl)-1-methylethyl]amino}-2-oxopyrazin-1(2H)-yl]-5-fluoro-4-methylbenzamide] |
| 10 | Cc1c(F)cc(C(=O)NC2CC2)cc1-n1ccnc(NC2(c3ccccc3OCCN(C)CCO)CC2)c1=O [Example 315, N-Cyclopropyl-3-fluoro-5-[3-{[1-(2-{2-[(2-hydroxyethyl)(methyl)amino]ethoxy}phenyl)cyclopropyl]amino}-2-oxopyrazin-1(2H)-yl]-4-methylbenzamide] |
| 9 | Cc1ccc(C(=O)NC2CC2)cc1-n1ccnc(N[C@@H](c2ccccc2)[C@@H](C)CN2CC[C@H](O)C2)c1=O [Example 190, N-Cyclopropyl-3-[3-[[(1R,2S)-3-[(3S)-3-hydroxy-1-pyrrolidinyl]-2-methyl-1-phenylpropyl]amino]-2-oxo-1(2H)-pyrazinyl]-4-methyl-benzamide] |
| 9.7 | Cc1ccc(C(=O)NC2CC2)cc1-n1ccnc(NC2(c3ccccc3OCCNCC(C)(C)CO)CC2)c1=O [Example 242, N-Cyclopropyl-3-[3-[[1-[2-[2-[(3-hydroxy-2,2-dimethylpropyl)amino]ethoxy]phenyl]cyclopropyl]amino]-2-oxo-1(2H)-pyrazinyl]-4-methyl-benzamide] |
| 6.2 | Cc1ccc(C(=O)NC2CC2)cc1-n1ccnc(NCc2cnc3ccccc3c2)c1=O [Example 28, N-Cyclopropyl-4-methyl-3-[2-oxo-3-[(3-quinolinylmethyl)amino]-1(2H)-pyrazinyl]-benzamide] |
| 8.6 | CNCCOc1ccccc1C(C)(C)Nc1nccn(-c2cc(C(N)=O)ccc2C)c1=O [Example 229, 4-Methyl-3-[3-[[1-methyl-1-[2-[2-(methylamino)ethoxy]phenyl]ethyl]amino]-2-oxo-1(2H)-pyrazinyl]benzamide] |
| 6.4 | Cc1ccc(CNc2nccn(-c3cc(C(=O)NC4CC4)ccc3C)c2=O)cc1 [Example 42, N-Cyclopropyl-4-methyl-3-[3-[[(4-methylphenyl)methyl]amino]-2-oxo-1(2H)-pyrazinyl]-benzamide] |
| 8.9 | Cc1ccc(C(=O)NC2CC2)cc1-n1ccnc(N[C@@H](c2ccccc2)[C@@H](C)CN2CCC(F)CC2)c1=O [Example 174, N-Cyclopropyl-3-[3-[[(1R,2S)-3-(4-fluoro-1-piperidinyl)-2-methyl-1-phenylpropyl]amino]-2-oxo-1(2H)-pyrazinyl]-4-methyl-benzamide] |
| 9.7 | Cc1ccc(C(=O)NC2CC2)cc1-n1ccnc(NC2(c3ccccc3OCCN3CCCC3)CC2)c1=O [Example 238, N-Cyclopropyl-4-methyl-3-[2-oxo-3-[[1-[2-[2-(1-pyrrolidinyl)ethoxy]phenyl]cyclopropyl]amino]-1(2H)-pyrazinyl]-benzamide] |
| 9.5 | CCN(C)CCOc1ccccc1C1(Nc2nccn(-c3cc(C(=O)NC4CC4)ccc3C)c2=O)CC1 [Example 241, N-Cyclopropyl-3-[3-[[1-[2-[2-(ethylmethylamino)ethoxy]phenyl]cyclopropyl]amino]-2-oxo-1(2H)-pyrazinyl]-4-methyl-benzamide] |

| SMILES | pIC50 |
| --- | --- |
| Cc1ccc(C(=O)NC2CC2)cc1-n1ccnc(NC(C)(C)c2ccccc2OCCCCN2CCN(C)CC2)c1=O [Example 206, N-Cyclopropyl-4-methyl-3-[3-[[1-methyl-1-[2-[4-(4-methyl-1-piperazinyl)butoxy]phenyl]ethyl]amino]-2-oxo-1(2H)-pyrazinyl]-benzamide] | 9.3 |
